From ChEMBL document CHEMBL1124001, “Synthesis and antileukemic activity of bis[[(carbamoyl)oxy]methyl]- substituted pyrrolo[2,1-a]isoquinolines, pyrrolo[1,2-a]quinolines, pyrrolo[2,1-a]isobenzazepines, and pyrrolo[1,2-a]benzazepines” (J Med Chem, 1988)

Experiments:
Mus musculus [1] = assay: Net log cell kill was determined after injecting 3.75 mg/kg intraperitoneally in CD2F1 mice; type: functional; conditions: route intraperitoneal
Mus musculus [2] = assay: Net log cell kill was determined after injecting 15 mg/kg intraperitoneally in CD2F1 mice; type: functional; conditions: route intraperitoneal
Mus musculus [3] = assay: Toxicity day survivors was determined by the ratio of animals survived to that of test animals at 15 mg/kg intraperitoneally in CD2F1 mice; 5/5; type: organism-based; set-up: dose 15 mg/kg, route intraperitoneal; conditions: in vivo, ip
Mus musculus [4] = assay: Ratio of treated to that of untreated tumor-bearing control animals at 3.75 mg/kg intraperitoneally in CD2F1 mice was determined; type: functional; conditions: route intraperitoneal
Mus musculus [5] = assay: Body weight change of test animals to that of control was determined after injection at 7.5 mg/kg intraperitoneally in CD2F1 mice; type: functional; conditions: route intraperitoneal
Mus musculus [6] = assay: Toxicity day survivors was determined by the ratio of animals survived to that of test animals at 60 mg/kg intraperitoneally in CD2F1 mice; 4/6; type: organism-based; set-up: dose 60 mg/kg, route intraperitoneal; conditions: in vivo, ip
Mus musculus [7] = assay: Body weight change of test animals to that of control was determined after injection at 30 mg/kg intraperitoneally in CD2F1 mice; type: functional; conditions: route intraperitoneal
Mus musculus [8] = assay: Toxicity day survivors was determined by the ratio of animals survived to that of test animals at 30 mg/kg intraperitoneally in CD2F1 mice; 4/6; type: organism-based; set-up: dose 30 mg/kg, route intraperitoneal; conditions: in vivo, ip
Mus musculus [9] = assay: Body weight change of test animals to that of control was determined after injection at 1.88 mg/kg intraperitoneally in CD2F1 mice; type: functional; conditions: route intraperitoneal
Mus musculus [10] = assay: Ratio of treated to that of untreated tumor-bearing control animals at 1.88 mg/kg intraperitoneally in CD2F1 mice was determined; type: functional; conditions: route intraperitoneal
Mus musculus [11] = assay: Toxicity day survivors was determined by the ratio of animals survived to that of test animals at 7.5 mg/kg intraperitoneally in CD2F1 mice; 6/6; type: organism-based; set-up: dose 7.5 mg/kg, route intraperitoneal; conditions: in vivo, ip
Mus musculus [12] = assay: Toxicity day survivors was determined by the ratio of animals survived to that of test animals at 3.75 mg/kg intraperitoneally in CD2F1 mice; 6/6; type: organism-based; set-up: dose 3.75 mg/kg, route intraperitoneal; conditions: in vivo, ip
Mus musculus [13] = assay: Net log cell kill was determined after injecting 1.88 mg/kg intraperitoneally in CD2F1 mice; type: functional; conditions: route intraperitoneal
Mus musculus [14] = assay: Body weight change of test animals to that of control was determined after injection at 60 mg/kg intraperitoneally in CD2F1 mice; type: functional; conditions: route intraperitoneal
Mus musculus [15] = assay: Ratio of treated to that of untreated tumor-bearing control animals at 15 mg/kg intraperitoneally in CD2F1 mice was determined; type: functional; conditions: route intraperitoneal
Mus musculus [16] = assay: Body weight change of test animals to that of control was determined after injection at 15 mg/kg intraperitoneally in CD2F1 mice; type: functional; conditions: route intraperitoneal
Mus musculus [17] = assay: Toxicity day survivors was determined by the ratio of animals survived to that of test animals at 1.88 mg/kg intraperitoneally in CD2F1 mice; 6/6; type: organism-based; set-up: dose 1.88 mg/kg, route intraperitoneal; conditions: in vivo, ip
Mus musculus [18] = assay: Ratio of treated to that of untreated tumor-bearing control animals at 7.5 mg/kg intraperitoneally in CD2F1 mice was determined; type: functional; conditions: route intraperitoneal
Mus musculus [19] = assay: Net log cell kill was determined after injecting 7.5 mg/kg intraperitoneally in CD2F1 mice; type: functional; conditions: route intraperitoneal
Mus musculus [20] = assay: Body weight change of test animals to that of control was determined after injection at 3.75 mg/kg intraperitoneally in CD2F1 mice; type: functional; conditions: route intraperitoneal
Mus musculus [21] = assay: Body weight change of test animals to that of control was determined after injection at 240 mg/kg intraperitoneally in CD2F1 mice; type: functional; conditions: route intraperitoneal
Mus musculus [22] = assay: Ratio of treated to that of untreated tumor-bearing control animals at 240 mg/kg intraperitoneally in CD2F1 mice was determined; type: functional; conditions: route intraperitoneal
Mus musculus [23] = assay: Net log cell kill was determined after injecting 120 mg/kg intraperitoneally in CD2F1 mice; type: functional; conditions: route intraperitoneal
Mus musculus [24] = assay: Net log cell kill was determined after injecting 30 mg/kg intraperitoneally in CD2F1 mice; type: functional; conditions: route intraperitoneal
Mus musculus [25] = assay: Ratio of treated to that of untreated tumor-bearing control animals at 60 mg/kg intraperitoneally in CD2F1 mice was determined; type: functional; conditions: route intraperitoneal
Mus musculus [26] = assay: Ratio of treated to that of untreated tumor-bearing control animals at 120 mg/kg intraperitoneally in CD2F1 mice was determined; type: functional; conditions: route intraperitoneal
Mus musculus [27] = assay: Toxicity day survivors was determined by the ratio of animals survived to that of test animals at 30 mg/kg intraperitoneally in CD2F1 mice; 6/6; type: organism-based; set-up: dose 30 mg/kg, route intraperitoneal; conditions: in vivo, ip
Mus musculus [28] = assay: Toxicity day survivors was determined by the ratio of animals survived to that of test animals at 60 mg/kg intraperitoneally in CD2F1 mice; 6/6; type: organism-based; set-up: dose 60 mg/kg, route intraperitoneal; conditions: in vivo, ip
Mus musculus [29] = assay: Net log cell kill was determined after injecting 240 mg/kg intraperitoneally in CD2F1 mice; type: functional; conditions: route intraperitoneal
Mus musculus [30] = assay: Toxicity day survivors was determined by the ratio of animals survived to that of test animals at 240 mg/kg intraperitoneally in CD2F1 mice; 6/6; type: organism-based; set-up: dose 240 mg/kg, route intraperitoneal; conditions: in vivo, ip
Mus musculus [31] = assay: Toxicity day survivors was determined by the ratio of animals survived to that of test animals at 120 mg/kg intraperitoneally in CD2F1 mice; 6/6; type: organism-based; set-up: dose 120 mg/kg, route intraperitoneal; conditions: in vivo, ip
Mus musculus [32] = assay: Net log cell kill was determined after injecting 60 mg/kg intraperitoneally in CD2F1 mice; type: functional; conditions: route intraperitoneal
Mus musculus [33] = assay: Ratio of treated to that of untreated tumor-bearing control animals at 30 mg/kg intraperitoneally in CD2F1 mice was determined; type: functional; conditions: route intraperitoneal
Mus musculus [34] = assay: Body weight change of test animals to that of control was determined after injection at 120 mg/kg intraperitoneally in CD2F1 mice; type: functional; conditions: route intraperitoneal

`COc1ccc2c(c1)CCn1cc(COC(=O)NC(C)C)c(COC(=O)NC(C)C)c1-2` showed a KE (Mus musculus [1]) of 3.46, a KE (Mus musculus [2]) of -1.07 and a TDS (Mus musculus [3]) of 5. The T/C (Mus musculus [4]) was 194%, the T-C (Mus musculus [5]) was -4.8 g and the TDS (Mus musculus [6]) was 4. It also gave a T-C (Mus musculus [7]) of -3.1 g, a TDS (Mus musculus [8]) of 4 and a T-C (Mus musculus [9]) of -1.8 g. It also gave a T/C (Mus musculus [10]) of 174%, a TDS (Mus musculus [11]) of 6 and a TDS (Mus musculus [12]) of 6. For the same compound, the KE (Mus musculus [13]) was 2.18, the T-C (Mus musculus [14]) was -4.6 g and the T/C (Mus musculus [15]) was 125%. The T-C (Mus musculus [16]) was -3 g, the TDS (Mus musculus [17]) was 6 and the T/C (Mus musculus [18]) was 232%. It also gave a KE (Mus musculus [19]) of 5.83 and a T-C (Mus musculus [20]) of -3.4 g.
For `Cc1c(COC(=O)NC(C)C)c(COC(=O)NC(C)C)c2ccc3ccccc3n12`, the T-C (Mus musculus [21]) was -3.5 g, the T/C (Mus musculus [22]) was 129% and the T-C (Mus musculus [7]) was -0.5 g. The KE (Mus musculus [23]) was -1.5, the KE (Mus musculus [24]) was -0.53 and the T/C (Mus musculus [25]) was 139%. The T/C (Mus musculus [26]) was 106%, the T-C (Mus musculus [14]) was -1.1 g and the TDS (Mus musculus [27]) was 6. For the same compound, the TDS (Mus musculus [28]) was 6, the KE (Mus musculus [29]) was -0.5 and the TDS (Mus musculus [30]) was 6. The TDS (Mus musculus [31]) was 6, the KE (Mus musculus [32]) was 0.47 and the T/C (Mus musculus [33]) was 135%. It also gave a T-C (Mus musculus [34]) of -1.8 g.
